Reference: PMC10541190 (The Journal of Clinical Investigation, 2023)
pEC50: −log10 of the molar value. Several values for one entry are separate records, joined by “and”; a condition that tells them apart may be missing. Equal values may be shown once. Read-outs that look alike come from different tables or passages of the source.

Legend:
SLK = details: cited from earlier work
SARS-CoV-2 [1] = format: cell-based
[2] = tested on: SARS-CoV-2 (Belgium-GHB-03021); format: cell-based
Vero cells = details: African green monkey
ErbB1 = details: cited from earlier work
rVSV-SARS-CoV-2-S [3] = assay: microbe, parasite or virus in culture; format: cell-based
in vitro [4] = details: human, Huh7 cell viability (%)
ErbB4 [5] = format: cell-based
ErbB2 = ErbB2 (Homo sapiens, UniProt P04626); format: cell-based
Chain of ErbB2 (P04626 23-1255): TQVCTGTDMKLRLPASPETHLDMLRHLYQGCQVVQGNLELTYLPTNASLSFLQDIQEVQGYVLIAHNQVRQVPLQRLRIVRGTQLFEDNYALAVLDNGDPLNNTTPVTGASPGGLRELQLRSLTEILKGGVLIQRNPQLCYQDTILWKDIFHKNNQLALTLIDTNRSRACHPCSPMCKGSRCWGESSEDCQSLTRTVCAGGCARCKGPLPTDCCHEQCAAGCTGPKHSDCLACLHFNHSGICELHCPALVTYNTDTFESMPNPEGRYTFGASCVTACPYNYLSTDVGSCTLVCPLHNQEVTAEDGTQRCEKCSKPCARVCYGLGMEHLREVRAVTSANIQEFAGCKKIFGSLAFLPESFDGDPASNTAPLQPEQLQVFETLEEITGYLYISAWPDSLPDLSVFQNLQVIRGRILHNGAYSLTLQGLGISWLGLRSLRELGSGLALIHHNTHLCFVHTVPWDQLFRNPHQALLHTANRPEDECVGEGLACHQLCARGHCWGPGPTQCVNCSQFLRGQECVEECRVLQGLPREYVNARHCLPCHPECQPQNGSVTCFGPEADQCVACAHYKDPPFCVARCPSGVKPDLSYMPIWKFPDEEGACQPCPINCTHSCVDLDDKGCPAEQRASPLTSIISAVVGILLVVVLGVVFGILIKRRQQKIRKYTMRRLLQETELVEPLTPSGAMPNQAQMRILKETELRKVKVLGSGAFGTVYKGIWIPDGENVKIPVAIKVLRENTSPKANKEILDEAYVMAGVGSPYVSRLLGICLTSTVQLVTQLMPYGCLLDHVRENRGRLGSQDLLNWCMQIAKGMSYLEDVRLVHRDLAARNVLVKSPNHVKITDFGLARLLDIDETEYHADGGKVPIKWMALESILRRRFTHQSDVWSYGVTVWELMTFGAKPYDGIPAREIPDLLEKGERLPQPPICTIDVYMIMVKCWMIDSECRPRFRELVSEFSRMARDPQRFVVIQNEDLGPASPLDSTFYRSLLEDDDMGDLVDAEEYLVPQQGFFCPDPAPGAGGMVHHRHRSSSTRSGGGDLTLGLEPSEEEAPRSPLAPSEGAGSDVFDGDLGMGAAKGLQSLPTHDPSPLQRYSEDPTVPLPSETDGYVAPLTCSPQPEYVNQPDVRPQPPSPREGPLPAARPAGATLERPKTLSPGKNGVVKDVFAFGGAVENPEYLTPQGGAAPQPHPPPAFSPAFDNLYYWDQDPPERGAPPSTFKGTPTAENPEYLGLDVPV

[6] = tested on: claudin-7 tight junctions; format: cell-based, human
VEEV (TC-83) [7] = details: mouse, in vivo
AKT, ERK, and p38 MAPK = format: cell-based, human
[8] = tested on: SARS-CoV-2 (USA-WA1/2020); assay: microbe, parasite or virus in culture; format: cell-based; details: Severe acute respiratory syndrome coronavirus 2, read-out: EC50, nucleocapsid transcript expression by RT-qPCR
[9] = tested on: brain microvascular endothelial cell monolayer
DENV2 = format: cell-based
SARS-CoV-2 [10] = format: cell-based; remark: listed apart in the source
ACE2 = format: cell-based, human
[11] = tested on: IL-2, IL-12p70, IL-13, IL-6, IFN-γ, IL-10; format: cell-based, human
MARV (Ci67 strain) = assay: organism not typed; format: cell-based; details: Huh-7, read-out: EC50, MARV replication
rVSV-SARS-CoV-2-S [12] = format: cell-based
in vitro [13] = details: African green monkey
RIPK2 = details: cited from earlier work
[14] = mouse, in vivo
[15] = tested on: SARS-CoV-2 (USA-WA1/2020); assay: microbe, parasite or virus in culture; format: cell-based; details: Severe acute respiratory syndrome coronavirus 2, Vero
ErbB4 [16] = molecular target: ErbB4 (Homo sapiens, UniProt Q15303); assay: biochemical; details: read-out: ErbB4 activity (%)
Chain of ErbB4 (Homo sapiens, UniProt Q15303) (Q15303 26-1308): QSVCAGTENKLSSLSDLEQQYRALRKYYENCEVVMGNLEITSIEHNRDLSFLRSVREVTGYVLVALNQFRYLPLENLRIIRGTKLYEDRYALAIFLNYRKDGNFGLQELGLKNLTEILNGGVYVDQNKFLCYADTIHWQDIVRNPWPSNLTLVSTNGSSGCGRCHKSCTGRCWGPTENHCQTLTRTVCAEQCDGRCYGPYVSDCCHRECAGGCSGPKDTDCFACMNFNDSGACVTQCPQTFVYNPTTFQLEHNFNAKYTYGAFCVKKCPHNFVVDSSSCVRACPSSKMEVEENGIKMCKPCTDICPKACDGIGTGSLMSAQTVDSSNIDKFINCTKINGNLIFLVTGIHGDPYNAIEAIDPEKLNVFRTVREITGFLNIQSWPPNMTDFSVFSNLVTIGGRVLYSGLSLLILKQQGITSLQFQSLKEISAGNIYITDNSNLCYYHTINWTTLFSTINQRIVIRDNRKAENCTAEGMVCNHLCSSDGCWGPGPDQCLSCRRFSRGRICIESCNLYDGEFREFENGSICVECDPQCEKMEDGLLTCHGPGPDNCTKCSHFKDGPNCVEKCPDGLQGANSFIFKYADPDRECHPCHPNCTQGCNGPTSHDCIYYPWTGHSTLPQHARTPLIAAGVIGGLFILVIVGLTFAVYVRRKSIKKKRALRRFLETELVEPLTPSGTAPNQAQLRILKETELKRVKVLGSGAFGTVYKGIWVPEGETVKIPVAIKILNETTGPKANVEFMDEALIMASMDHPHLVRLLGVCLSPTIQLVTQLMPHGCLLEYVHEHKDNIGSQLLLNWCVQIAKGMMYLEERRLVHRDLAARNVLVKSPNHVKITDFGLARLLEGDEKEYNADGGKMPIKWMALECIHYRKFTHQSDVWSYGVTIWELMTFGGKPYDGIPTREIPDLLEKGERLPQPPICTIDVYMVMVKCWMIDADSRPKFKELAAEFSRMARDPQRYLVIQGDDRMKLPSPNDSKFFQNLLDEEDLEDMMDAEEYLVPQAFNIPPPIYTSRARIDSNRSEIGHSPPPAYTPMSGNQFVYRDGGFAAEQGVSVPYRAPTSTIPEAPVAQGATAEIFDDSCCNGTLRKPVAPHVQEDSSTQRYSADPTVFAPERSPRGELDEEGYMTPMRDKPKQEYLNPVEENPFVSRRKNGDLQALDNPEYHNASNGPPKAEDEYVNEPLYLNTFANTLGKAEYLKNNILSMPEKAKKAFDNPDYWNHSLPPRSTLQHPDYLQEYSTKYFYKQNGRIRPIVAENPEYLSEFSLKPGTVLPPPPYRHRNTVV

[17] = tested on: MPOXV 2003 and MPOXV 2022; assay: microbe, parasite or virus in culture; format: cell-based; details: Monkeypox virus, A549, read-out: EC50, monkeypox replication
RAF1 = details: cited from earlier work
rVSV-SARS-CoV-2-S [18] = assay: microbe, parasite or virus in culture; format: cell-based; details: Severe acute respiratory syndrome coronavirus 2, Vero, read-out: EC50, rVSV-SARS-CoV-2-S infection
[19] = tested on: SARS-CoV-2 (USA-WA1/2020); assay: microbe, parasite or virus in culture; format: cell-based; details: Severe acute respiratory syndrome coronavirus 2, read-out: EC50, viral replication by plaque assay
Huh7 cells = details: human
EBOV (Kikwit isolate) = assay: microbe, parasite or virus in culture; format: cell-based; details: Zaire ebolavirus, Huh-7, read-out: EC50, EBOV replication
A549 cells = details: human
VEEV (TrD) [20] = assay: microbe, parasite or virus in culture; format: cell-based; details: Venezuelan equine encephalitis virus, U-87 MG, read-out: EC50, VEEV (TrD) infection
VEEV (TrD) [21] = format: cell-based
VEEV (TC-83) [22] = format: cell-based
[23] = tested on: SARS-CoV-2 (USA-WA1/2020); format: cell-based
in vitro [24] = details: human, Cell viability (%)

Structure (SMILES): CS(=O)(=O)CCNCc1ccc(-c2ccc3ncnc(Nc4ccc(OCc5cccc(F)c5)c(Cl)c4)c3c2)o1 [Lapatinib]
- Other targets: SLK (% of control) (SLK): RAF1 (0%), STK10 (1.4%), RIPK2 (6.1%), MAP2K5 (12%), SLK (18%)
- mean Manders' coefficient, colocalization of nucleocapsid and Rab7 (SARS-CoV-2 [1]): 0.33
- number of nucleocapsid puncta per cell (SARS-CoV-2 [1]): significantly reduced
- rescue of Vero-eGFP cells from SARS-CoV-2-induced lethality, dose response [2]: dose-dependent rescue
- CC50 (Vero cells): > 20000 nM
- % of control, ErbB1 (ErbB1): 5.3 nM 0%
- pEC50 (rVSV-SARS-CoV-2-S [3]; Severe acute respiratory syndrome coronavirus 2, Calu-3, read-out: EC50, rVSV-SARS-CoV-2-S infection): 5.49 to 5.59
- pEC50 (rVSV-SARS-CoV-2-S [3]; read-out: EC50, rVSV-SARS-CoV-2-S infection): 5.59
- viability at 0.37 µM (in vitro [4]): 103%
- viability at 3.333 µM (in vitro [4]): 105%
- antiviral effect on VEEV (TC-83) upon ectopic expression of WT ErbB4 (ErbB4 [5]): completely or partially reversed
- increase in cell surface level of ErbB2 (ErbB2): more than 2 fold
- claudin-7 morphology and alveolar-like architecture [6]: intact claudin-7 morphology
- mice protected (VEEV (TC-83) [7]): 60%
- mice protected by day 10 (VEEV (TC-83) [7]): 80%
- mice protected by day 14 (VEEV (TC-83) [7]): 40%
- toxicity of the dose in the VEEV model (VEEV (TC-83) [7]): nontoxic
- SARS-CoV-2-induced activation of AKT and ERK (1.5 and 24 hpi) and p38 MAPK (24 hpi) (AKT, ERK, and p38 MAPK): dramatically inhibited
- pEC50 [8]: > 6.70
- barrier integrity (FITC-dextran permeability) [9]: maintained barrier integrity
- replication of DENV2 (DENV2): dose-dependently inhibited replication
- suppression of viral infection (SARS-CoV-2 [10]): 98% and 75% and 99% and 84% and 57%
- cell surface level of ACE2 in infected cells (ACE2): reversed the effect of SARS-CoV-2 infection
- IFN-γ concentration [11]: 26.79 pg/mL and 38.39 pg/mL
- IL-1β concentration [11]: 11.89 pg/mL and 16.34 pg/mL
- IL-2 concentration [11]: 11.13 pg/mL and 12.03 pg/mL
- IL-4 concentration [11]: 7.10 pg/mL and 9.18 pg/mL
- IL-6 concentration [11]: 1072.19 pg/mL and 1729.84 pg/mL
- IL-8 concentration [11]: 2235.87 pg/mL and 2263.16 pg/mL
- IL-10 concentration [11]: 8.47 pg/mL and 10.43 pg/mL
- IL-12p70 concentration [11]: 18.48 pg/mL and 18.83 pg/mL
- IL-13 concentration [11]: 9.88 pg/mL and 8.83 pg/mL
- TNF-α concentration [11]: 22.84 pg/mL and 21.83 pg/mL
- production of IL-2, IL-12p70, IL-13 and IL-6 [11]: reduced the production
- pEC50 (MARV (Ci67 strain)): 5.70
- effect on rVSV-SARS-CoV-2-S infection when added upon or after virus binding (rVSV-SARS-CoV-2-S [12]): comparable effects
- CC50 (in vitro [13]): > 20000 nM
- viability at 6.67 µM (in vitro [13]; Cell viability (%)): 86.8%
- viability at 20 µM (in vitro [13]; Cell viability (%)): 64%
- viability at 20 µM (in vitro [13]; Vero cell viability (%)): 85%
- Other targets: RIPK2 (% of control) (RIPK2): RAF1 (0%), STK10 (1.4%), RIPK2 (6.1%), MAP2K5 (12%), SLK (18%)
- tolerability [14]: good tolerability
- pEC50 ([15]; 24 h, read-out: SARS-CoV-2 EC50): 6.30
- pEC50 ([15]; read-out: EC50, SARS-CoV-2 infection): 6.30
- activity at 0.001 µM (ErbB4 [16]): 104%
- activity at 0.003 µM (ErbB4 [16]): 93.7%
- activity at 0.009 µM (ErbB4 [16]): 68.4%
- activity at 0.247 µM (ErbB4 [16]): 17.5%
- activity at 2.222 µM (ErbB4 [16]): 6.13%
- activity at 6.667 µM (ErbB4 [16]): 3.13%
- activity at 20 µM (ErbB4 [16]): 2.93%
- activity at […] (ErbB4 [16]): 31.2% and 54.5% and 8.67%
- pEC50 [17]: 5.12 to 5.21
- Other targets: RAF1 (% of control) (RAF1): RAF1 (0%), STK10 (1.4%), RIPK2 (6.1%), MAP2K5 (12%), SLK (18%)
- pEC50 (rVSV-SARS-CoV-2-S [18]): 5.49
- pEC50 [19]: 6.40
- Huh7 cell viability (%) (Huh7 cells; 1.111 µM): 102.98%
- Huh7 cell viability (%) (Huh7 cells; 10 µM): 86.28%
- pEC50 (EBOV (Kikwit isolate)): 5.60
- A549 viability (%) (A549 cells): 103.13%
- pEC50 (VEEV (TrD) [20]): 6.05
- VEEV (TrD) replication in vascular and brain sides of the gNVU (VEEV (TrD) [21]): suppressed VEEV (TrD) replication
- replication of TC-83 (VEEV (TC-83) [22]): dose-dependently inhibited replication
- SARS-CoV-2 nucleocapsid staining (confocal IF) [23]: near-complete disappearance
- viability at 20 µM (in vitro [24]): 68.5%
